Data on one compound can be found in US12222310B2, “Magnesium ion selective membranes” (Siemens Healthcare Diagnostics Inc., priority 2015, dated 2025).

This data set is described as follows: plasticizer lost from sensor membrane over use life, remaining plasticizer determined by UPLC. The format is physicochemical. The note with it: membranes in RAPIDPoint systems, at least 25 days, about 10 whole blood samples per business day. How it is done: Membrane formulations were prepared by using NPOE or ETH 217 plasticizers with polyvinylchloride, magnesium ionophore and lipohilic ion exchange salt. The materials were dissolved in a suitable organic solvent at a solids ratio of 10%. The solutions were deposited on the sensor substrates and the solvent allowed to evaporate yielding the formed membranes. The formulations were optimized to yield membranes with the best obtainable magnesium selectivity over calcium and were generally at least greater than 1:1.
Sensors were incorporated into RAPIDPoint systems (available from Siemens Healthcare Diagnostics Inc.) and tested over at least 25 days. During this time, sensors were calibrated with magnesium containing reagents and exposed to whole blood samples at approximately 10 per business day. In addition, magnesium containing quality control solutions were also run across least 25 days at least once every day. After testing the membranes were removed from the sensor substrate and the amount of remaining plasticizer was determined by UPLC and so the amount of plasticizer lost over time was calculated.

With `CCCCCCCCCCCCOc1ccccc1[N+](=O)[O-]` [ETH 217, 1-dodecyloxy-2-nitrobenzene], the “% by wt Plasticizer Lost” value is given as 3.9%.
